pIC50: −log10 of the molar value.

As usually defined, the pIC50 is −log10 of the IC50, conventionally taken in molar units.

Sequence of Recombinant human IDO (P14902 whole entry): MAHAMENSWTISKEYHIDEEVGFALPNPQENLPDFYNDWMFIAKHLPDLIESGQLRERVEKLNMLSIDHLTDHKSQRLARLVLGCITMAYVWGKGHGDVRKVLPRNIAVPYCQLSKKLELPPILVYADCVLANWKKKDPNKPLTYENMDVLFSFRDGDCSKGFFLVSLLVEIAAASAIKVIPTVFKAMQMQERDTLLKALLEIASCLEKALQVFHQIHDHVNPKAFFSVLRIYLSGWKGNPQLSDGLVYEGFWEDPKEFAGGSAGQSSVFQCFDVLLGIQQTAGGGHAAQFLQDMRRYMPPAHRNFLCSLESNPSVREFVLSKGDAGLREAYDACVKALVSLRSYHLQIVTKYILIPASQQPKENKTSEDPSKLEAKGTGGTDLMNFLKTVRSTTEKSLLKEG

This assay concerns the target Recombinant human IDO (Homo sapiens, UniProt P14902). Put plainly: Bridge-IT tryptophan fluorescence assay of human IDO-1 inhibition. It is filed as biochemical. The settings on record: recombinant human IDO 7.5 nM, L-tryptophan. In a few lines:
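Two protocol variants: 100 μM L-Trp for 90 min at 37 °C, or 30 min enzyme–compound pre-incubation at 25 °C, then 50 μM L-Trp for 60 min at 25 °C. Reaction stopped in Bridge-IT solution A for 30 min at 30 °C.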
Consider `OC(CC1c2nc(Cl)ccc2-c2cncn21)C1CCC(F)(F)CC1` (single isomer, unassigned) [Compound 52a, 2-[10-chloro-4,6,9-triazatricyclo[6.4.0.0^[2,6]]dodeca-1(8),2,4,9,11-pentaen-7-yl]-1-(4,4-difluorocyclohexyl)ethan-1-ol], for which the negative-log IC50 (pIC50) was 6.00 to 7.00.

As for `OC(CC1c2nc(Cl)ccc2-c2cncn21)C1CCC(F)(F)CC1` (single isomer, unassigned) [Compound 52c, 2-[10-chloro-4,6,9-triazatricyclo[6.4.0.0^[2,6]]dodeca-1(8),2,4,9,11-pentaen-7-yl]-1-(4,4-difluorocyclohexyl)ethan-1-ol], the pIC50 was under 6.00.

For the compound `COc1ccc2c(n1)C(CC(O)C1CCC3(CC1)CC3)n1cncc1-2` (single isomer, unassigned) [Compound 53b, 2-[10-methoxy-4,6,9-triazatricyclo[6.4.0.0^[2,6]]dodeca-1(8),2,4,9,11-pentaen-7-yl]-1-[spiro[2.5]octan-6-yl]ethan-1-ol], the negative logarithm of the IC50 (pIC50) is over 7.00.

Consider `COc1ccc2c(n1)C(CC(O)C1CCC3(CC1)CC3)n1cncc1-2` (single isomer, unassigned) [Compound 53c, 2-[10-methoxy-4,6,9-triazatricyclo[6.4.0.0^[2,6]]dodeca-1(8),2,4,9,11-pentaen-7-yl]-1-[spiro[2.5]octan-6-yl]ethan-1-ol], for which the pIC50 is under 6.00.

As for `COc1ccc2c(n1)C(CCC1(F)CCC3(CC1)CC3)n1cncc1-2` (single isomer, unassigned) [Compound 54a, 7-(2-{6-fluorospiro[2.5]octan-6-yl}ethyl)-10-methoxy-4,6,9-triazatricyclo[6.4.0.0^[2,6]]dodeca-1(8),2,4,9,11-pentaene], the pIC50 was over 7.00.

Turning to `COc1ccc2c(n1)C(CCC1(F)CCC3(CC1)CC3)n1cncc1-2` (single isomer, unassigned) [Compound 54b, 7-(2-{6-fluorospiro[2.5]octan-6-yl}ethyl)-10-methoxy-4,6,9-triazatricyclo[6.4.0.0^[2,6]]dodeca-1(8),2,4,9,11-pentaene], the pIC50 was under 6.00.

As for `OC(CC1c2nc(Cl)ccc2-c2cncn21)C1CCCCC1` (single isomer, unassigned) [Compound 55a, 2-[10-chloro-4,6,9-triazatricyclo[6.4.0.0^[2,6]]dodeca-1(8),2,4,9,11-pentaen-7-yl]-1-cyclohexylethan-1-ol], the pIC50 is 6.00 to 7.00.

Take `OC(CC1c2nc(Cl)ccc2-c2cncn21)C1CCCCC1` (single isomer, unassigned) [Compound 55b, 2-[10-chloro-4,6,9-triazatricyclo[6.4.0.0^[2,6]]dodeca-1(8),2,4,9,11-pentaen-7-yl]-1-cyclohexylethan-1-ol]: the pIC50 was under 6.00.

Turning to `OC(CC1c2nc(Cl)ccc2-c2cncn21)C1CCCCC1` (single isomer, unassigned) [Compound 55c, 2-[10-chloro-4,6,9-triazatricyclo[6.4.0.0^[2,6]]dodeca-1(8),2,4,9,11-pentaen-7-yl]-1-cyclohexylethan-1-ol], the pIC50 was under 6.00.

For `OC(CC1c2nc(Cl)ccc2-c2cncn21)C1CCCCC1` (single isomer, unassigned) [Compound 55d, 2-[10-chloro-4,6,9-triazatricyclo[6.4.0.0^[2,6]]dodeca-1(8),2,4,9,11-pentaen-7-yl]-1-cyclohexylethan-1-ol], the pIC50 is 6.00 to 7.00.

On to `OC(CC1c2nc(C3CC3)ccc2-c2cncn21)C1CCCCC1` (single isomer, unassigned) [Compound 56b, 1-cyclohexyl-2-[10-cyclopropyl-4,6,9-triazatricyclo[6.4.0.0^[2,6]]dodeca-1(8),2,4,9,11-pentaen-7-yl]ethan-1-ol], for which the pIC50 is over 7.00.

Consider `OC(CC1c2nc(C3CC3)ccc2-c2cncn21)C1CCCCC1` (single isomer, unassigned) [Compound 56c, 1-cyclohexyl-2-[10-cyclopropyl-4,6,9-triazatricyclo[6.4.0.0^[2,6]]dodeca-1(8),2,4,9,11-pentaen-7-yl]ethan-1-ol], for which the pIC50 was under 6.00.

On to `OC(CC1c2nc(C3CC3)ccc2-c2cncn21)C1CCC(F)(F)CC1` (single isomer, unassigned) [Compound 57b, 2-[10-cyclopropyl-4,6,9-triazatricyclo[6.4.0.0^[2,6]]dodeca-1(8),2,4,9,11-pentaen-7-yl]-1-(4,4-difluorocyclohexyl)ethan-1-ol], for which the pIC50 is 6.00 to 7.00.

For the compound `OC(CC1c2nc(C3CC3)ccc2-c2cncn21)C1CCC(F)(F)CC1` (single isomer, unassigned) [Compound 57c, 2-[10-cyclopropyl-4,6,9-triazatricyclo[6.4.0.0^[2,6]]dodeca-1(8),2,4,9,11-pentaen-7-yl]-1-(4,4-difluorocyclohexyl)ethan-1-ol], the pIC50 is 6.00 to 7.00.

Consider `OC1CCC(F)(CCC2c3cc(F)ncc3-c3cncn32)CC1` (single isomer, unassigned) [Compound 58a, 4-fluoro-4-[2-[10-fluoro-4,6,11-triazatricyclo[6.4.0.0^[2,6]]dodeca-1(8),2,4,9,11-pentaen-7-yl]ethyl]cyclohexan-1-ol], for which the pIC50 is under 6.00.

For `OC1CCC(F)(CCC2c3cc(F)ncc3-c3cncn32)CC1` (single isomer, unassigned) [Compound 58c, 4-fluoro-4-[2-[10-fluoro-4,6,11-triazatricyclo[6.4.0.0^[2,6]]dodeca-1(8),2,4,9,11-pentaen-7-yl]ethyl]cyclohexan-1-ol], the pIC50 was under 6.00.

Regarding `OC1CCC(F)(CCC2c3cc(F)ncc3-c3cncn32)CC1` (single isomer, unassigned) [Compound 58d, 4-fluoro-4-[2-[10-fluoro-4,6,11-triazatricyclo[6.4.0.0^[2,6]]dodeca-1(8),2,4,9,11-pentaen-7-yl]ethyl]cyclohexan-1-ol], the pIC50 was under 6.00.

For `OCC1CCC(F)(CCC2c3ccccc3-c3cncn32)CC1` (single isomer, unassigned) [Compound 59a, [4-fluoro-4-[2-[5H-imidazo[4,3-a]isoindol-5-yl]ethyl]cyclohexyl]methanol], the pIC50 is under 6.00.

In the case of `OCC1CCC(F)(CCC2c3ccccc3-c3cncn32)CC1` (single isomer, unassigned) [Compound 59b, [4-fluoro-4-[2-[5H-imidazo[4,3-a]isoindol-5-yl]ethyl]cyclohexyl]methanol], the pIC50 was over 7.00.

For `OCC1CCC(F)(CCC2c3ccccc3-c3cncn32)CC1` (single isomer, unassigned) [Compound 59c, [4-fluoro-4-[2-[5H-imidazo[4,3-a]isoindol-5-yl]ethyl]cyclohexyl]methanol], the pIC50 is over 7.00.

Take `OCC1CCC(F)(CCC2c3ccccc3-c3cncn32)CC1` (single isomer, unassigned) [Compound 59d, [4-fluoro-4-[2-[5H-imidazo[4,3-a]isoindol-5-yl]ethyl]cyclohexyl]methanol]: the pIC50 is under 6.00.

As for `OC1(C2CCC(F)(CCC3c4ccccc4-c4cncn43)CC2)CC1` (single isomer, unassigned) [Compound 60a, 1-[4-fluoro-4-[2-[5H-imidazo[4,3-a]isoindol-5-yl]ethyl]cyclohexyl]cyclopropan-1-ol], the pIC50 is over 7.00.

Turning to `OC1(C2CCC(F)(CCC3c4ccccc4-c4cncn43)CC2)CC1` (single isomer, unassigned) [Compound 60b, 1-[4-fluoro-4-[2-[5H-imidazo[4,3-a]isoindol-5-yl]ethyl]cyclohexyl]cyclopropan-1-ol], the pIC50 is under 6.00.

On to `OC1(C2CCC(F)(CCC3c4ccccc4-c4cncn43)CC2)CC1` (single isomer, unassigned) [Compound 60c, 1-[4-fluoro-4-[2-[5H-imidazo[4,3-a]isoindol-5-yl]ethyl]cyclohexyl]cyclopropan-1-ol], for which the pIC50 is under 6.00.

Turning to `OC1(C2CCC(F)(CCC3c4ccccc4-c4cncn43)CC2)CC1` (single isomer, unassigned) [Compound 60d, 1-[4-fluoro-4-[2-[5H-imidazo[4,3-a]isoindol-5-yl]ethyl]cyclohexyl]cyclopropan-1-ol], the pIC50 is over 7.00.

`CC(C)(O)C1CCC(F)(CCC2c3ccccc3-c3cncn32)CC1` (single isomer, unassigned) [Compound 61a, 2-[4-fluoro-4-[2-[5H-imidazo[4,3-a]isoindol-5-yl]ethyl]cyclohexyl]propan-2-ol]: the negative-log IC50 (pIC50) was under 6.00.

Regarding `CC(C)(O)C1CCC(F)(CCC2c3ccccc3-c3cncn32)CC1` (single isomer, unassigned) [Compound 61b, 2-[4-fluoro-4-[2-[5H-imidazo[4,3-a]isoindol-5-yl]ethyl]cyclohexyl]propan-2-ol], the pIC50 is under 6.00.

On to `CC(C)(O)C1CCC(F)(CCC2c3ccccc3-c3cncn32)CC1` (single isomer, unassigned) [Compound 61c, 2-[4-fluoro-4-[2-[5H-imidazo[4,3-a]isoindol-5-yl]ethyl]cyclohexyl]propan-2-ol], for which the pIC50 was over 7.00.

Regarding `CC(C)(O)C1CCC(F)(CCC2c3ccccc3-c3cncn32)CC1` (single isomer, unassigned) [Compound 61d, 2-[4-fluoro-4-[2-[5H-imidazo[4,3-a]isoindol-5-yl]ethyl]cyclohexyl]propan-2-ol], the pIC50 was over 7.00.

In the case of `OC(CC1CCCCC1)CC1c2ncccc2-c2cncn21` (single isomer, unassigned) [Compound 62a, 1-cyclohexyl-3-[4,6,9-triazatricyclo[6.4.0.0^[2,6]]dodeca-1(8),2,4,9,11-pentaen-7-yl]propan-2-ol], the pIC50 is 6.00 to 7.00.

Take `OC(CC1CCCCC1)CC1c2ncccc2-c2cncn21` (single isomer, unassigned) [Compound 62c, 1-cyclohexyl-3-[4,6,9-triazatricyclo[6.4.0.0^[2,6]]dodeca-1(8),2,4,9,11-pentaen-7-yl]propan-2-ol]: the pIC50 was under 6.00.

In the case of `OC(CC1CCCCC1)CC1c2ncccc2-c2cncn21` (single isomer, unassigned) [Compound 62d, 1-cyclohexyl-3-[4,6,9-triazatricyclo[6.4.0.0^[2,6]]dodeca-1(8),2,4,9,11-pentaen-7-yl]propan-2-ol], the pIC50 was under 6.00.
